We go through three molecules from ChEMBL document CHEMBL1142558, “A new polyether ladder compound produced by the dinoflagellate Karenia brevis” (J Nat Prod, 2005).

A short description of series [1]: Displacement of [3H]PbTx3 from VSSC in Sprague-Dawley rat brain synaptosomes. The class given is subcellular.
Series [2] deals with Gambusia affinis. Nature of the series: Toxicity against Gambusia affinis assessed as time required for death at 1 ug/ml after 24 hrs. To be noted: in vivo. The class given is organism-based.

`C=C/C=C\CC[C@H]1O[C@H]2CC[C@@]3(C)O[C@H]4[C@@H](O)C[C@@]5(C)O[C@@H](CC/C=C(C)/C(C)=C/C(OC)OC)[C@@H](C)C[C@@H]5O[C@@H]4C[C@@H]3O[C@@H]2CC[C@@]1(C)O` [BREVENAL ACETAL] yielded a Ki in series [1] of 0.68 µM. Also, the Activity result in series [2] is “Non-toxic”.

Regarding `C=C/C=C\CC[C@H]1O[C@H]2CC[C@@]3(C)O[C@H]4[C@@H](O)C[C@@]5(C)O[C@@H](CC/C=C(C)/C(C)=C/C=O)[C@@H](C)C[C@H]5O[C@@H]4C[C@@H]3O[C@@H]2CC[C@@]1(C)O` [BREVENAL], the Ki in series [1] turned out to be 1.85 µM. Moreover, the Activity entry in series [2] was “Non-toxic”.

As to `C=C(C=O)C[C@@H]1C[C@H](O)[C@]2(C)O[C@@H]3C[C@@H]4O[C@@H]5C[C@]6(C)O[C@]7(C)CC[C@@H]8O[C@@H]9C[C@]%10(C)O[C@@H]%11C(C)=CC(=O)O[C@H]%11C[C@H]%10O[C@H]9C[C@@H](C)[C@H]8O[C@H]7C[C@H]6O[C@@]5(C)C/C=C\[C@H]4O[C@H]3C[C@H]2O1` [BREVETOXIN B], the Activity in series [2] was 7.5 min.

For orientation: Ki means a dissociation constant, usually derived from enzyme kinetics or from competition with a known ligand. Read a high Ki as lower affinity.
